US20260176253A1 (priority 2021, published 2026)

Experiments:
5-HT2A [1] = target: T1, 5-HT2A (Homo sapiens, UniProt P28223); assay: Serotonin 5-HT2A in vitro radioligand binding competition assay ([3H]-DOI); set-up: purchased Epics Therapeutics S. A. (Belgium), contract assay FAST-0505B; host or cells: membrane extracts; conditions: [3H]-DOI competition, membrane extracts; read-out: 5HT2A R[…] ACTIVITY
Method: Serotonin 5-HT2AIn Vitro Radioligand Binding Competition Assay. The 5-HT2A radioligand binding competition assay was performed at Epics Therapeutics S. A. (Belgium, FAST-0505B) using conventional methods. Briefly, competition binding is performed in duplicate in the wells of a 96 well plate (Master Block, Greiner, 786201) containing binding buffer (optimized for each receptor), membrane extracts (amount of protein/well optimized for each receptor), radiotracer [3H]-DOI (final concentration optimized for each receptor) and test compound. Nonspecific binding was determined by co-incubation with 200-fold excess of cold competitor. The samples were incubated in a final volume of 0.1 ml at a temperature and for a duration optimized for each receptor and then filtered over filter plates. Filters were washed six times with 0.5 ml of ice-cold washing buffer (optimized for each receptor) and 50 µl of Microscint 20 (Packard) were added in each well. The plates were incubated 15 min on an orbital shaker and then counted with a TopCount™ for 1 min/well.

rat cortical neurons = assay: Neurite outgrowth in primary neuronal cultures assay; format: cell-based; set-up: key: A: Statistically significant mean increase as a percent of DMSO control at 10 μM or less; B: No statistically significant mean increase as a percent of DMSO control at 10 μM or less; conditions: 72h, vs DMSO control, 10 μM or less
From the text: Neurite Outgrowth Assay. Neurite Outgrowth in Primary Neuronal Cultures Assay. Changes in the pattern of neurite outgrowth have been implicated in psychiatric and neurodegenerative disorders as well as traumatic injuries. The discovery of new compounds that can positively affect neuritogenesis are important for developing new therapeutics for neurological diseases. Measurement of neurite outgrowth of rat cortical neurons using an automated image-based assay was used to determine the neuroplastic effects of the compounds of the present disclosure. The neurite outgrowth assay was performed at Neurofit SAS (France) as described below.
Pregnant Wistar rats (Janvier; France) were used for the study. They were delivered 6 days before their use. Upon arrival at Neurofit animal facility, they were housed one per cage and maintained in a room with controlled temperature (21-22° C.) and a reversed light-dark cycle (12 h/12h; lights on: 17:30-05:30; lights off: 05:30-17:30) with food and water available ad libitum.
Female Wistar rats of 17 days gestation were killed by cervical dislocation and the fetuses were removed from the uterus. Their brains were placed in ice-cold medium of Leibovitz (L15, Gibco, Fisher bioblock, France). Cortices were dissected and meninges were carefully removed. The cortical neurons were dissociated by trypsinization for 30 min at 37° C. (trypsin-EDTA, Gibco) in presence of 0.1 mg/ml DNAse I (Roche, France). The reaction was stopped by addition of Dulbecco's Modified Eagle Medium (DMEM; Gibco) with 10% of fetal bovine serum (FBS; Gibco). The suspension was triturated with a 10-ml pipette and using a needle syringe 21G and centrifuged at 350×g for 10 min at room temperature. The pellet of dissociated cells was resuspended in a medium consisting of Neurobasal (Gibco) supplemented with 2% B27 supplement (Gibco), 0.5 mM L-Glutamine (Gibco), an antibiotic-antimicotic mixture. Viable cells were counted in a Neubauer cytometer using the trypan blue exclusion test (Sigma). Cells were seeded at a density of 10000 cells per well in 96-well plate (Costar) precoated with poly-L-lysine. Test compound at different concentrations were added to the cultures. Donepezil (positive control) was tested at 250 nM.
After 72h (3 days) of plating, cultures were fixed with paraformaldehyde in PBS (4%, Sigma) for 30 min at 4° C. Then, cells were successively permeabilized with 0.1% Triton X100 for 30 min, saturated with PBS containing 3% of BSA and were incubated 1 h with anti-beta III tubulin antibody (Sigma) at 1/10 000 in PBS containing 0.5% of BSA. Cells were washed three times with PBS containing 0.5% of BSA, and they were incubated 1 h with goat anti-mouse antibody coupled with AF488 (Invitrogen A11001) diluted at 1/1000 in PBS containing 0.5% of BSA. Finally, nuclei were staining with DAPI 1 mg/ml at 1/1000 in PBS containing 0.5% of BSA. After rinsing with PBS, the plate was filmed and neurite networks were examined and analyzed using High-Content Screening (CellInsight, Thermo Scientific). The average number of neurites per neuron and the average total length of neurites per neuron were the main parameters analyzed. Analysis of data was performed using analysis of variance (ANOVA). The Fisher's Protected Least Significant Difference test was used for multiple comparisons. A p value ≤0.05 was considered significant. The software used is StatView 5.0 from SAS Institut.

5-HT2A [2] = target: T1, 5-HT2A; assay: Serotonin 5-HT2A in vitro cellular IPOne agonism assay (HTRF); format: cell-based; set-up: host or cells: CHO-K1; conditions: CHO-K1 cells, 60 min
Method: (§1) Serotonin 5-HT2AIn Vitro Cellular IPOne Agonism Assay. The 5-HT2AIPOne HTRF assay was performed at Epics Therapeutics S. A. (Belgium, FAST-0505I) using conventional methods. Briefly, CHO—K1 cells expressing human recombinant 5-HT2A receptor grown to mid-log phase in culture media without antibiotics were detached with PBS-EDTA, centrifuged, and resuspended in medium without antibiotics buffer. 20,000 cells were distributed in a 96 well plate and incubated overnight at 37° C. with 5% Co2.
For agonist testing, the medium was removed and 20 μl of assay buffer plus 20 μl of test compound or reference agonist were added in each well. The plate was incubated for 60 min. at 37° C. with 5% CO2.
(§2) After addition of the lysis buffer containing IP1-d2 and anti-IP1 cryptate detection reagents, plates were incubated 1-hour at room temperature, and fluorescence ratios were measured according to the manufacturer specification, with the HTRF kit.

5-HT2A [3] = target: T1, 5-HT2A; assay: Serotonin 5-HT2A in vitro cellular IPOne antagonism assay (HTRF); format: cell-based; set-up: host or cells: CHO-K1; conditions: CHO-K1 cells, reference agonist a-Me-5HT
Method: as §1, with “Antagonism” for “Agonism”, “FAST-0505I) in antagonism mode” for “FAST-0505I)”
For antagonist testing, a reference agonist a-Me-5HT was added and fluorescence signal monitored for several minutes, followed by addition of 20 μl of assay buffer plus 20 μl of test compound or reference antagonist ketanserin, in each well. The plate was incubated for 60 min. at 37° C. with 5% CO2.
as §2

T1 sequence (P28223 whole entry): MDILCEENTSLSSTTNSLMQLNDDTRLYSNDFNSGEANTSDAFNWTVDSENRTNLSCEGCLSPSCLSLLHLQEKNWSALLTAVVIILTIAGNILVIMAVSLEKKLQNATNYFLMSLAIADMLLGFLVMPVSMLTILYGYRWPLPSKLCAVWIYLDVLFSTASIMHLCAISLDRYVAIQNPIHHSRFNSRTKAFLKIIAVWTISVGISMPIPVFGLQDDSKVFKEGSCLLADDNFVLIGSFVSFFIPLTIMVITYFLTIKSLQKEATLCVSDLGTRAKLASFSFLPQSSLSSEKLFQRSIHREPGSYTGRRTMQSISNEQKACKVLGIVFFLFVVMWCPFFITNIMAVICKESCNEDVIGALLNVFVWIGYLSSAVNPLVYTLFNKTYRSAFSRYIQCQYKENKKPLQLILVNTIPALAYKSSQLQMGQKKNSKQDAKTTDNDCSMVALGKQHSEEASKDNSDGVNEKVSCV

SMILES | IC50 (5-HT2A [1]) | INCREASE IN NEURITE BRANCHING (rat cortical neurons) | INCREASE IN NEURITE LENGTH (rat cortical neurons) | INCREASE IN NEURITE NUMBER (rat cortical neurons) | EC50 (5-HT2A [2]) | IC50 (5-HT2A [3])
FC(F)(F)c1cccc2[nH]c3c(c12)CCN1CCCC1C3 (centres unmarked) [Compound 21, 7-(trifluoromethyl)-1,2,3,5,6,11,12,12a-octahydropyrrolo[1′,2′:1,2]azepino[4,5-b]indole] | 1000 to 10000 nM | A | A | B | > 10 µM | 101 to 1000 nM
c1ccc2c3c([nH]c2c1)C[C@H]1CCCN1CC3 [Compound 20, (R)-1,2,3,5,6,11,12,12a-octahydropyrrolo[1′,2′:1,2]azepino[4,5-b]indole] | 101 to 1000 nM | A | A | A | 0.101 to 1 µM | 1000 to 10000 nM
FC(F)(F)Oc1ccc2c3c([nH]c2c1)CC1CCCN1CC3 (centres unmarked) [Compound 13, 9-(trifluoromethoxy)-1,2,3,5,6,11,12,12a-octahydropyrrolo[1′,2′;1,2]azepino[4,5-b]indole] | 1000 to 10000 nM | B | A | B | > 10 µM | 101 to 1000 nM
c1ccc2c3c([nH]c2c1)CCN1CCC[C@@H]1C3 [Compound 22, (R)-1,2,3,5,6,7,12,12a-octahydropyrrolo[1′,2′:1,7]azepino[4,5-b]indole] | 1000 to 10000 nM | A | A | A | 0.101 to 1 µM | 101 to 1000 nM
COc1ccc2c3c([nH]c2c1)CCN1CCCC1C3 (centres unmarked) [Compound 1, 9-methoxy-1,2,3,5,6,7,12,12a-octahydropyrrolo[1′,2′:1,7]azepino[4,5-b]indole] | 1000 to 10000 nM | B | B | B | > 10 µM | –
COc1ccc2c3c([nH]c2c1)CCN1CCC[C@H]1C3 [Compound 25, (S)-9-methoxy-1,2,3,5,6,7,12,12a-octahydropyrrolo[1′,2′:1,7]azepino[4,5-b]indole] | > 10000 nM | A | A | A | > 10 µM | 101 to 1000 nM
c1ccc2c3c([nH]c2c1)CCN1CCCC1C3 (centres unmarked) [Compound 7, 1,2,3,5,6,7,12,12a-octahydropyrrolo[1′,2′:1,7]azepino[4,5-b]indole] | 101 to 1000 nM | A | A | A | 1 to 10 µM | 101 to 1000 nM
COc1cccc2[nH]c3c(c12)CC1CCCN1CC3 (centres unmarked) [Compound 5, 11-methoxy-1,2,3,5,6,7,12,12a-octahydropyrrolo[1′,2′:1,7]azepino[4,5-b]indole] | 1000 to 10000 nM | B | A | B | 1 to 10 µM | –
COc1cccc2[nH]c3c(c12)C[C@@H]1CCCN1CC3 [Compound 27, (S)-11-methoxy-1,2,3,5,6,7,12,12a-octahydropyrrolo[1′,2′:1,7]azepino[4,5-b]indole] | 10 to 100 nM | A | A | A | 0.01 to 0.1 µM | 10 to 100 nM
c1ccc2c3c([nH]c2c1)CCN1CCC[C@H]1C3 [Compound 23, (S)-1,2,3,5,6,7,12,12a-octahydropyrrolo[1′,2′:1,7]azepino[4,5-b]indole] | 101 to 1000 nM | A | A | A | > 10 µM | 10 to 100 nM
COc1ccc2c3c([nH]c2c1)CCN1CCC[C@@H]1C3 [Compound 24, (R)-9-methoxy-1,2,3,5,6,7,12,12a-octahydropyrrolo[1′,2′:1,7]azepino[4,5-b]indole] | 1000 to 10000 nM | A | A | A | > 10 µM | 101 to 1000 nM
Cn1c2c(c3ccccc31)CC1CCCN1CC2 (centres unmarked) [Compound 6, 7-methyl-1,2,3,5,6,7,12,12a-octahydropyrrolo[1′,2′:1,7]azepino[4,5-b]indole] | 101 to 1000 nM | B | A | B | > 10 µM | 101 to 1000 nM
COc1ccc2c3c([nH]c2c1)C[C@@H]1CCCN1CC3 [Compound 17, (S)-9-methoxy-1,2,3,5,6,11,12,12a-octahydropyrrolo[1′,2′:1,2]azepino[4,5-b]indole] | > 10000 nM | A | A | A | > 10 µM | > 10000 nM
FC(F)(F)c1ccc2c3c([nH]c2c1)CC1CCCN1CC3 (centres unmarked) [Compound 12, 9-(trifluoromethyl)-1,2,3,5,6,11,12,12a-octahydropyrrolo[1′,2′:1,2]azepino[4,5-b]indole] | 1000 to 10000 nM | A | A | B | > 10 µM | –
COc1ccc2c3c([nH]c2c1)CC1CCCN1CC3 (centres unmarked) [Compound 2, 9-methoxy-1,2,3,5,6,11,12,12a-octahydropyrrolo[1′,2′:1,2]azepino[4,5-b]indole] | > 10000 nM | A | A | B | > 10 µM | –
